Tests used:
Design in all cases: key: “+” indicates that the compound exibits inhibitory activity; “−” indicates that low or no inhibitory activity was observed
HeLa cells = assay: Cell proliferation assay, photographic image analysis of proliferation, apoptosis and death (PAD assay), HeLa; assay type: cell-based; details: 6 concentrations tested
Protocol: (§1) A549 (ATCC# CCL-185), HeLa (ATCC# CCL-2), HCT116 (ATCC# CCL-247), and H1299 (ATCC# CRL-5803) cells were maintained in T175 flasks following the ATCC recommended media and handling procedures. Flasks reaching approximately 70% confluency were trypsinized and resuspended in RPMI media (Cell-Gro catalog number 10-040-CM) modified to contain 5% FBS, 100 ug/mlPen/Strep (Cell-Gro catalog number 30-002-CL), and 0.3 mg/ml L-Glutamine (Cell-Gro catalog number 25-003-CL). A 20,000 cells/ml solution was made for plating. Cells were plated in black Packard 96 well plates by placing 100 μl per well (2,000 cells per well).
(§2) Compounds and additional media were added 24 hours after cell plating. A compound master plate was created with concentrations 500 times greater than the final concentration added to the cells. All compound testing was done in duplicate using 6.3 fold dilutions starting with 10 mM. All outside wells (and 4 internal wells) were DMSO controls. Taxol and at least one additional control were run on all plates. Three microliters of the compound master plate were added to deep well blocks containing 750 μl of RPMI media. One hundred microliters were transferred from the compound/media deep well blocks to the plated cells resulting in a 500 fold dilution of the compounds. Cells were grown at 37° C., 5% CO2 for 48 hours.
(§3) Cells to be analyzed by photography were fixed and stained. One hundred microliters of media were removed and 100 μl of 9.3% […] was added to each well. Plates were left on the benchtop for 45 minutes. A staining solution containing 1.55 μl of 1 mg/ml DAPI added to 18.75 ml PBS was warmed for 15 minutes at 37° C. The cells were aspirated prior to washing with 100 μl of PBS. Seventy microliters of PBS were aspirated and 170 μl of the DAPI solution were added to each well of fixed cells. Plates were left at room temperature for one hour then aspirated and washed twice with 100 μl of PBS. The stained cells were left at 4° C. for a minimum of 16 hours before photographic analysis with Array Scan II (Cellomics). Analysis of the photographic images to determine numbers of live cells (proliferation), apoptotic cells and dead cells, were according to the methods described in U.S. Provisional Patent Application Ser. No. 60/406,714, which incorporated herein in its entirety.

[1] = molecular target: E3 (His-APC11/APC2-"APC") (Homo sapiens, UniProt Q9NYG5+Q9UJX6); assay: Plate-based E3 ligase assay (APC FLAG), auto-ubiquitination; assay type: biochemical; details: for APC Flag 8 pt: 8 concentrations tested
Sequence of E3 (His-APC11/APC2-"APC") (Q9NYG5 whole entry): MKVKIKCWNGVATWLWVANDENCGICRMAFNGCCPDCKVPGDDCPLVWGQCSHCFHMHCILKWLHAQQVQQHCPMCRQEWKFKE
Sequence of E3 (His-APC11/APC2-"APC") (Q9UJX6 whole entry): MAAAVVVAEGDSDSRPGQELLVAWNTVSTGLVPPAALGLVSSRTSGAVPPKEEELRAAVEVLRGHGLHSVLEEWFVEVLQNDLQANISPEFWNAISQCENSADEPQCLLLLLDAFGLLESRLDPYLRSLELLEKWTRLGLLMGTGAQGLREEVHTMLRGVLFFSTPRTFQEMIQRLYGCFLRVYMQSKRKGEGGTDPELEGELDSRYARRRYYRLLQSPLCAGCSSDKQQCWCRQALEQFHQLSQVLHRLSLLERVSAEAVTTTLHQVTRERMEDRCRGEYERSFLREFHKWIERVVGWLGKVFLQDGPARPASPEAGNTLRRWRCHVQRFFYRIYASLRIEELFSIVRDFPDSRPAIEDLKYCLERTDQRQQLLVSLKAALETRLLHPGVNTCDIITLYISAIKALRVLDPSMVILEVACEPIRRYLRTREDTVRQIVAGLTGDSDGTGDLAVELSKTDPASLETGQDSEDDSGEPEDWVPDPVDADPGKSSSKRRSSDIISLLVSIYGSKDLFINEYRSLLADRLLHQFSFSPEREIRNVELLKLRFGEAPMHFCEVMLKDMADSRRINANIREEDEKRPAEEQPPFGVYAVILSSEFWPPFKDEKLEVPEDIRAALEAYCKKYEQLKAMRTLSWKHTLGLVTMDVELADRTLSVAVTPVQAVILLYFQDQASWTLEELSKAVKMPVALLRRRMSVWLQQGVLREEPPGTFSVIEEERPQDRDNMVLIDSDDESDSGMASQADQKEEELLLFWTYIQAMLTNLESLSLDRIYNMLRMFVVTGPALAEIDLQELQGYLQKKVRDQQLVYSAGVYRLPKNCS
Outline: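 His-APC11/APC2 auto-ubiquitination was run in casein-blocked nickel plates for 1 h at room temperature, with E1 at 5 ng/well, UbcH5c at 20 ng/well and APC at 100 ng/well. Buffer was 62.5 mM Tris pH 7.6, 3 mM MgCl2, 1 mM DTT, 2.5 mM ATP and Flag-ubiquitin at 100 ng/well. Detection used anti-Flag/HRP chemiluminescence, and IC50 was typically from 6 or 8 concentrations versus a DMSO control.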

A549 cells = assay: Cell proliferation assay, photographic image analysis of proliferation, apoptosis and death (PAD assay), A549; assay type: cell-based; details: 6 concentrations tested
Protocol: as §1, §2, §3

Row | SMILES | APC Flag (2 pt) ([1]; 2 concentrations tested) | APC Flag 8 pt [1] | PAD Assay, HELA 6 pt (HeLa cells) | PAD Assay, A549 6 pt (A549 cells)
1 | Cc1cc2cc(NS(=O)(=O)c3cc(Cl)c(Oc4ccc([N+](=O)[O-])cc4Cl)c(Cl)c3)ccc2[nH]1 [Compound 244, 3,5-dichloro-4-(2-chloro-4-nitrophenoxy)-N-(2-methyl-1H-indol-5-yl)benzene sulfonamide] |  | + | + | +
2 | O=S(=O)(Nc1ccc(Oc2ncccn2)c(Cl)c1)c1cccc(Cl)c1 [Compound 292, 3-chloro-N-[3-chloro-4-(pyrimidin-2-yloxy)phenyl]benzenesulfonamide] |  |  | − | +
3 | O=S(=O)(Nc1ccc(Oc2ncc(C(F)(F)F)cc2Cl)cc1)c1cccc(Cl)c1 [Compound 294, 3-chloro-N-(4-(3-chloro-5-(trifluoromethyl)pyridyn-2-yloxy)phenyl)benzenesulfonamide] |  |  | + | +
4 | O=C(Nc1cccc(Cl)c1)N1CCC(Oc2ccccc2C(F)(F)F)CC1 [Compound 305, N-(3-chlorophenyl)-4-(2-(trifluoromethyl)phenoxy)piperidine-1-carboxamide] |  |  | + | +
5 | N=C(NS(=O)(=O)c1cc(Cl)c(Oc2ccc([N+](=O)[O-])cc2Cl)c(Cl)c1)c1ccccn1 [Example 27, N-{[3,5-dichloro-4-(2-chloro-4-nitrophenoxy)phenyl]sulfonyl}pyridine-2-carboximidamide] |  | − |  | −
6 | O=S(=O)(Nc1ccc(F)cc1C(F)(F)F)c1ccc(Oc2ncc(C(F)(F)F)cc2Cl)cc1 [Example 271, 4-{[3-chloro-5-(trifluoromethyl)pyridin-2-yl]oxy}-N-[4-fluoro-2-(trifluoromethyl)phenyl]benzenesulfonamide] |  |  | + | +
7 | O=S(=O)(Nc1ccc(Oc2ncc(C(F)(F)F)cc2Cl)cc1)c1cccc(C(F)(F)F)c1 [Example 295, N-(4-(3-chloro-5-(trifluoromethyl)pyridin-2-yloxy)phenyl)-3-(trifluoromethyl)benzenesulfonamide] |  |  | + | +
8 | O=S(=O)(Nc1ccc(Oc2cc(C(F)(F)F)ccn2)cc1)c1cccc(Cl)c1 [Example 297, 3-chloro-N-(4-(4-(trifluoromethyl)pyridin-2-yloxy)phenyl)benzenesulfonamide] |  |  | − | +
9 | O=S(=O)(Nc1ccc(Oc2cc(C(F)(F)F)ccn2)cc1)c1cccc(C(F)(F)F)c1 [Example 298, 3-(trifluoromethyl)-N-(4-(4-(trifluoromethyl)pyridin-2-yloxy)phenyl)benzenesulfonamide] |  |  | + | +
10 | O=S(=O)(Nc1ccc(Oc2cc(C(F)(F)F)ccn2)cc1)c1ccccc1C(F)(F)F [Example 299, 2-(trifluoromethyl)-N-(4-(4-(trifluoromethyl)pyridin-2-yloxy)phenyl)benzenesulfonamide] |  |  | − | +
11 | O=S(=O)(c1cccc(Cl)c1)N1CCC(Oc2ccccc2C(F)(F)F)CC1 [Example 300, 1-(3-chlorophenylsulfonyl)-4-(2-(trifluoromethyl)phenoxy)piperidine] |  |  | + | +
12 | O=S(=O)(c1cccc(C(F)(F)F)c1)N1CCC(Oc2ccccc2C(F)(F)F)CC1 [Example 301, 4-(2-(trifluoromethyl)phenoxy)-1-(3-(trifluoromethyl)phenylsulfonyl)piperidine] |  |  | + | +
13 | O=S(=O)(c1ccccc1C(F)(F)F)N1CCC(Oc2ccccc2C(F)(F)F)CC1 [Example 302, 4-(2-(trifluoromethyl)phenoxy)-1-(2-(trifluoromethyl)phenylsulfonyl)piperidine] |  |  | + | +
14 | O=C(Nc1ccccc1C(F)(F)F)N1CCC(Oc2ccccc2C(F)(F)F)CC1 [Example 306, 4-(2-(trifluoromethyl)phenoxy)-N-(2-(trifluoromethyl)phenyl)piperidine-1-carboxamide] |  |  | − | −

Further lines, with some results ahead:

Row | APC Flag (2 pt) ([1]; 2 concentrations tested) | APC Flag 8 pt [1] | SMILES | PAD Assay, HELA 6 pt (HeLa cells) | PAD Assay, A549 6 pt (A549 cells)
15 | − (2 pt) |  | O=[N+]([O-])c1ccc(Oc2c(Cl)cc(S(=O)(=O)Nc3ccccn3)cc2Cl)c(Cl)c1 [Compound 216, 3,5-dichloro-4-(2-chloro-4-nitrophenoxy)-N-pyridin-2-ylbenzenesulfonamide] | + | +
16 |  | + | O=[N+]([O-])c1ccc(Oc2c(Cl)cc(S(=O)(=O)Nc3ccc(C(F)(F)F)cc3Cl)cc2Cl)c(Cl)c1 [Compound 240, 3,5-dichloro-4-(2-chloro-4-nitrophenoxy)-N-[2-chloro-4-(trifluoromethyl)phenyl]benzenesulfonamide] | + | +
17 |  | + | Cc1ccc(F)cc1NS(=O)(=O)c1cc(Cl)c(Oc2ccc([N+](=O)[O-])cc2Cl)c(Cl)c1 [Compound 242, 3,5-dichloro-4-(2-chloro-4-nitrophenoxy)-N-(5-fluoro-2-methylphenyl)benzene sulfonamide] | + | +
18 |  | + | O=S(=O)(Nc1cc(Cl)cnc1Cl)c1ccc(Oc2ncc(C(F)(F)F)cc2Cl)cc1 [Compound 257, 4-{[3-chloro-5-(trifluoromethyl)pyridin-2-yl]oxy}-N-(2,5-dichloropyridin-3-yl) benzenesulfonamide] | + | +
19 |  | + | O=S(=O)(Nc1c(F)cccc1F)c1ccc(Oc2ncc(C(F)(F)F)cc2Cl)cc1 [Compound 259, 4-{[3-chloro-5-(trifluoromethy)pyridin-2-yl]oxy}-N-(2,6-difluorophenyl)benzene sulfonamide] | − | −
20 |  | + | O=[N+]([O-])c1ccc(Oc2ccc(S(=O)(=O)Nc3ccc(C(F)(F)F)cc3Cl)cc2Cl)c(C(F)(F)F)c1 [Compound 265, 3-chloro-N-[2-chloro-4-(trifluoromethyl)phenyl]-4-[4-nitro-2-(trifluoromethyl)phenoxy]benzenesulfonamide] | + | +
21 |  | + | O=[N+]([O-])c1ccc(Oc2ccc(S(=O)(=O)Nc3cc(Cl)ccc3C(F)(F)F)cc2Cl)c(C(F)(F)F)c1 [Compound 267, 3-chloro-N-[5-chloro-2-(trifluoromethyl)phenyl]-4-[4-nitro-2-(trifluoromethyl)phenoxy]benzenesulfonamide] | + | +
22 |  | + | O=S(=O)(Nc1cc(Cl)ccc1C(F)(F)F)c1ccc(Oc2ncc(C(F)(F)F)cc2Cl)cc1 [Compound 272, N-[5-chloro-2-(trifluoromethyl)phenyl]-4-{[3-chloro-5-(trifluoromethyl)pyridin-2-yl]oxy}benzenesulfonamide] | + | +
23 |  | + | N=C(NS(=O)(=O)c1cc(Cl)c(Oc2ccc([N+](=O)[O-])cc2Cl)c(Cl)c1)c1ccncc1 [Example 29, N-{[3,5-dichloro-4-(2-chloro-4-nitrophenoxy)phenyl]sulfonyl}pyridine-4-carboximidamide] |  | +
24 |  | − | N=C(CCl)NS(=O)(=O)c1cc(Cl)c(Oc2ccc([N+](=O)[O-])cc2)c(Cl)c1 [Example 31, 2-chloro-N-{[3,5-dichloro-4-(4-nitrophenoxy)phenyl]sulfonyl}ethanimidamide] |  | +
25 |  | − | N=C(NS(=O)(=O)c1cc(Cl)c(Oc2ccc([N+](=O)[O-])cc2)c(Cl)c1)c1cccnc1 [Example 60, N-{[3,5-dichloro-4-(4-nitrophenoxy)phenyl]sulfonyl}pyridine-3-carboximidamide] |  | +

Source: patent US7915293B2, “Ubiquitin ligase inhibitors” (Rigel Pharmaceuticals, Inc., priority 2003, dated 2011)
